Measured values reported in article PMC10953372 (2023).

Tests used:
[1] = system: Neomycin-bindender Riboschalter (2FA-markiert) (RNA, riboswitch, 2-fluoroadenine at 16, 17 and 24) GGCUGCUUGUCCUUUAAUGGUCCAGCC; test: 19F NMR titration and CEST; conditions: 303 K; 215-1200 µM samples, 1 to 1.5 equivalents of ligand
[2] = system: Neomycin-bindender Riboschalter (2FA-markiert) (RNA, riboswitch, 2-fluoroadenine at 16, 17 and 24) GGCUGCUUGUCCUUUAAUGGUCCAGCC; test: 19F NMR CEST; conditions: 303 K; derived from kex = [L]kon + koff = 88 ± 8 s^-1; subsaturating ligand

binding [1]	koff [2]	Compound
yes		NC[C@@H]1O[C@H](O[C@H]2[C@@H](O)[C@H](O[C@@H]3[C@@H](O)[C@H](N)C[C@H](N)[C@H]3O[C@H]3O[C@H](CN)[C@@H](O)[C@H](O)[C@H]3N)O[C@@H]2CO)[C@H](N)[C@@H](O)[C@@H]1O
	~ 1.4 s^-1	NC[C@H]1O[C@H](O[C@H]2[C@H](O[C@@H]3O[C@H](CO)[C@@H](O)[C@H]3O)[C@@H](O)[C@H](N)C[C@@H]2N)[C@H](N)[C@@H](O)[C@@H]1O
